Measurements taken from US6114517A, “Methods of modulating tumor necrosis factor α-induced expression of cell adhesion molecules” (Isis Pharmaceuticals Inc., priority 1998, dated 2000).

Tests used:
Type in all cases: cell-based, human
c-raf mRNA = c-raf mRNA levels by Northern blot in HMVEC
Protocol: Human dermal microvascular cells (HMVEC-d; Clonetics, San Diego, Calif.) were cultivated in endothelial basal media (EBM, Clonetics) supplemented with 10% fetal bovine serum (HyClone, Logan, Utah). Cells were grown in 100 mm petri dishes until 70-80% confluent, then washed with PBS and OPTI-MEM (Life Technologies, Inc., Gaithersburg, Md.). The cells were then incubated in the presence of OPTI-MEM and […] LIPOFECTIN (a 1:1 (w/w) liposome formulation of the cationic lipid N-[1-(2,3-dioleyloxy)propyl]-n,n,n-trimethylammonium chloride (DOTMA), and dioleoyl phosphotidylethanolamine (DOPE) in membrane filtered water (Life Technologies, Gaithersburg, Md.), per 100 nM of oligonucleotide followed by addition of oligonucleotide at the appropriate concentrations.
For determination of mRNA levels by Northern blot, total RNA was prepared from cells by the guanidinium isothiocyanate procedure or by the Qiagen RNAEASY method (Qiagen, Santa Clarita, Calif.) at the indicated times after initiation of oligonucleotide treatment. Northern blot analysis was performed as described in Current Protocols in Molecular Biology (Ausubel, F. M., et al., (eds), 1987, Greene Publishing Assoc. and Wiley Interscience, New York). A glyceraldehyde 3-phosphate dehydrogenase (G3PDH) probe was purchased from Clontech (Palo Alto, Calif., Catalog Number 9805-1). RNA was quantified and normalized to G3PDH mRNA levels using a Molecular Dynamic PHOSPHORIMAGER (Sunnyvale, Calif.).
ISIS 12854 (SEQ ID NO. 2) is a 2'-O-methoxyethyl mixed backbone chimeric antisense oligonucleotide designed to hybridize with 3'-untranslated sequences contained within human c-raf mRNA. To determine whether this antisense oligonucleotide is effective as a c-raf inhibitor in endothelial cells, human dermal microvascular cells (HMVEC) were treated with ISIS 12854 (SEQ ID NO. 2) as described in Example 2. C-raf mRNA and protein expression was examined by northern and Western blot analysis. The c-raf cDNA probe was generated from the plasmid, p627 (American Type Culture Collection, Manassas, Va.; catalog #41050), following the supplied instructions. The c-raf antibody was obtained from Transduction Laboratories, Inc. (Lexington, Ky.).

A-raf protein = A-raf protein expression by Western blot in HMVEC; details: same blot stripped and blotted with antibody against A-raf
Protocol: For determination of protein levels by Western blot, cellular extracts were prepared using […] of RIPA extraction buffer per 100-mm dish. The protein concentration was quantified by Bradford assay using the BioRad kit (BioRad, Hercules, Calif.). Equal amounts of protein were loaded on 10% or 12% SDS-PAGE mini-gel (Novex, San Diego, Calif.). Once transferred to PVDF membranes (Millipore, Bedford, Mass.), the membranes were then treated for a minimum of 2 hours with specific primary antibody followed by incubation with secondary antibody conjugated to HRP. The results were visualized by Enhanced Chemiluminescent (ECL) detection (New England BioLab, Beverly, Mass.). In some experiments, the blots were stripped in stripping buffer (2% SDS, 12.5 mM Tris, pH 6.8) for 30 minutes at 50° C. After extensive washing, the blots were blocked and blotted with different primary antibody.
Reduction of c-raf protein levels also occurred following oligonucleotide treatment. Reduction in protein expression was first detectable 24 hours after treatment and maximal reduction of c-raf protein levels was achieved 48 hours after treatment with 150 nM oligonucleotide. Reduction of c-raf protein levels persisted up to 72 hour following initial treatment.

ERK = experiment: TNF-α-stimulated ERK activity, in vitro kinase assay on extracts of treated cells; details: 48 hours recovery, TNF-α 5 or 15 minutes
Protocol: (§1) To examine the effect of the c-raf antisense oligonucleotide (ISIS 12854, SEQ ID NO. 2) on ERK, JNK, and p38 MAPK activities stimulated by TNF-α, in vitro kinase assays were performed on extracts derived from cells treated with ISIS 12854 (SEQ ID NO. 2). Cells were treated with oligonucleotides and induced with cytokines. At the indicated time, cells were lysed on ice and debris was removed by centrifugation. Protein concentration was measured by Bradford assay. Lysate containing equal amounts of protein were incubated with primary antibody-agarose conjugates (ERK and p38 assay; Santa Cruz Biotechnology, Santa Cruz, Calif.), or with JNK1-specific or JNK2-specific antibodies (JNK assay; Upstate Biotechnology, Lake Placid, N.Y.), overnight at 4° C.
(§2) For isoform-specific JNK assays, anti-rabbit IgG conjugated with agarose beads was added to cell extracts following JNK antibody treatment and wash steps and incubated for 2 hours at 4° C. […]
(§3) Cells were treated with the c-raf antisense compound, ISIS 12854 (SEQ ID NO. 2), allowed to recover for 48 hours, at which time TNF-α was added for 5 or 15 minutes prior to cell lysis and initiation of the kinase assays. […] Suitable substrates and ATP were added to the immunoprecipitated kinase complexes and the reaction mixes were analyzed on SDS-PAGE. […]

JNK = experiment: TNF-α-stimulated JNK activity, in vitro kinase assay on extracts of treated cells; details: 48 hours recovery, TNF-α 5 or 15 minutes
Protocol: as §1, §2, §3

p38 MAPK = experiment: TNF-α-stimulated p38 MAPK activity, in vitro kinase assay on extracts of treated cells; details: 48 hours recovery, TNF-α 5 or 15 minutes
Protocol: as §1, §2, §3

IC50 (c-raf mRNA; read-out: IC50 for c-raf mRNA reduction): ~2.5 nM
Substance: ToCoCoCoGoCsCsTsGsTsGsAsCsAsToGoCoAoToT [ISIS 12854]
% mRNA Expression (c-raf) (c-raf mRNA; 0.5 nM): 67%
% mRNA Inhibition (c-raf) (c-raf mRNA; 0.5 nM): 33%
% mRNA Expression (c-raf) (c-raf mRNA; 2.5 nM): 31%
% mRNA Inhibition (c-raf) (c-raf mRNA; 2.5 nM): 69%
% mRNA Expression (c-raf) (c-raf mRNA; 10 nM): 15%
% mRNA Inhibition (c-raf) (c-raf mRNA; 10 nM): 85%
% mRNA Expression (c-raf) (c-raf mRNA; 50 nM): 10%
% mRNA Inhibition (c-raf) (c-raf mRNA; 50 nM): 90%
% mRNA Expression (c-raf) (c-raf mRNA; 100 nM): 13%
% mRNA Inhibition (c-raf) (c-raf mRNA; 100 nM): 87%
% mRNA Expression (c-raf) (c-raf mRNA; 200 nM): 3%
% mRNA Inhibition (c-raf) (c-raf mRNA; 200 nM): 97%
A-raf protein expression (A-raf protein): largely unaffected
ERK activity (ERK): reduced
JNK activity (JNK): inhibited
Activation of p38 MAPK (p38 MAPK): not affected
